Experimental data published in US8247211B2, “Glycopeptide antibiotics” (American Cyanamid Company, priority 2001, dated 2012).
Values after ≈ are worked out from the molar mass of the structure shown.

How the values were obtained:
Experiment in all cases: In vitro antibacterial evaluation: minimum inhibitory concentration (MIC), broth dilution method
Assay type in all cases: cell-based
Conditions in all cases: 18 hours at 35° C.
Staphylococcus sp. = tested on: Staphylococcus sp.
Outline: (§1)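 Broth dilution per NCCLS M7-A2 in Muller-Hinton II […], inoculum 5×10^5 CFU/mL, antibiotic tested over 64-0.06 μg/mL. MIC is taken as the lowest concentration that inhibits growth. Panel includes recent clinical isolates resistant to methicillin, penicillin and/or vancomycin.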

Enterococcus sp. = tested on: Enterococcus sp.
Outline: as §1

Streptococcus sp. = tested on: Streptococcus sp.
Outline: as §1

Escherichia coli = tested on: Escherichia coli
Outline: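 Test strains, among them recent clinical isolates carrying methicillin, penicillin and/or vancomycin resistance, were inoculated at 5×10^5 CFU/mL. A broth dilution series spanning 64-0.06 μg/mL in Muller-Hinton II […] (NCCLS M7-A2) defined the MIC as the lowest growth-inhibiting concentration.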

[1] = broth dilution, inoculum 5×10^5 CFU/mL

Q: `CCOc1cc(COCC2OC(OC3C(CO)OC(Oc4ccc(CC5NC(=O)C(C(C)c6ccccc6)NC(=O)CNC(=O)C(CO)NC(=O)C(C(O)C6CNC(=N)N6C6OC(CO)C(O)C(O)C6O)NC(=O)C(C(O)C6CNC(=N)N6)NC5=O)cc4)C(O)C3O)C(O)C(O)C2O)ccc1OC` (stereo not shown) [Example 238] was tested. Which “MIC Coagulase Negative Staphylococcus (GC 4547)” value (Staphylococcus sp.; Coagulase Negative Staphylococcus (GC 4547)) did it give?
A: 2 µg/mL (≈ 1.37 µM)

Q: And the “MIC Coagulase Negative Staphylococcus (GC 4548)” value (Staphylococcus sp.; Coagulase Negative Staphylococcus (GC 4548))?
A: 2 µg/mL (≈ 1.37 µM)

Q: What about the “MIC Coagulase Negative Staphylococcus (GC 4549)” value (Staphylococcus sp.; Coagulase Negative Staphylococcus (GC 4549)) of the same molecule?
A: 2 µg/mL (≈ 1.37 µM)

Q: And the “MIC Coagulase Negative Staphylococcus (GC 4551)” value (Staphylococcus sp.; Coagulase Negative Staphylococcus (GC 4551))?
A: 4 µg/mL (≈ 2.74 µM)

Q: And the “MIC Coagulase Negative Staphylococcus (GC 6257)” value (Staphylococcus sp.; Coagulase Negative Staphylococcus (GC 6257))?
A: 1 µg/mL (≈ 0.685 µM)

Q: What about the “MIC Staphylococcus aureus (ATCC 29213)” value (Staphylococcus sp.; Staphylococcus aureus (ATCC 29213)) of the same molecule?
A: 4 µg/mL (≈ 2.74 µM)

Q: What about the “MIC Staphylococcus aureus (GC 1131)” value (Staphylococcus sp.; Staphylococcus aureus (GC 1131)) of the same molecule?
A: 4 µg/mL (≈ 2.74 µM)

Q: What about the “MIC Staphylococcus aureus (GC 3051)” value (Staphylococcus sp.; Staphylococcus aureus (GC 3051)) of the same molecule?
A: 4 µg/mL (≈ 2.74 µM)

Q: And the “MIC Staphylococcus aureus (GC 3053)” value (Staphylococcus sp.; Staphylococcus aureus (GC 3053))?
A: 8 µg/mL (≈ 5.48 µM)

Q: What about the “MIC Staphylococcus aureus (GC 4541)” value (Staphylococcus sp.; Staphylococcus aureus (GC 4541)) of the same molecule?
A: 4 µg/mL (≈ 2.74 µM)

Q: What about the “MIC Staphylococcus aureus (GC 4542)” value (Staphylococcus sp.; Staphylococcus aureus (GC 4542)) of the same molecule?
A: 4 µg/mL (≈ 2.74 µM)

Q: And the “MIC Staphylococcus aureus (GC 4544)” value (Staphylococcus sp.; Staphylococcus aureus (GC 4544))?
A: 8 µg/mL (≈ 5.48 µM)

Q: And the “MIC Staphylococcus aureus (GC 4545)” value (Staphylococcus sp.; Staphylococcus aureus (GC 4545))?
A: 2 µg/mL (≈ 1.37 µM)

Q: What about the “MIC Staphylococcus aureus-SMITH (GC 4543)” value (Staphylococcus sp.; Staphylococcus aureus-SMITH (GC 4543)) of the same molecule?
A: 4 µg/mL (≈ 2.74 µM)

Q: And the “MIC Staphylococcus haemolyticus (GC 4546)” value (Staphylococcus sp.; Staphylococcus haemolyticus (GC 4546))?
A: 2 µg/mL (≈ 1.37 µM)

Q: And the “MIC Enterococcus avium (GC 4558)” value (Enterococcus sp.; Enterococcus avium (GC 4558))?
A: 16 µg/mL (≈ 11 µM)

Q: What about the “MIC Enterococcus faecalis (ATCC 29212)” value (Enterococcus sp.; Enterococcus faecalis (ATCC 29212)) of the same molecule?
A: 16 µg/mL (≈ 11 µM)

Q: What about the “MIC Enterococcus faecalis (GC 2242)” value (Enterococcus sp.; Enterococcus faecalis (GC 2242)) of the same molecule?
A: 16 µg/mL (≈ 11 µM)

Q: And the “MIC Enterococcus faecalis (GC 2691)” value (Enterococcus sp.; Enterococcus faecalis (GC 2691))?
A: 16 µg/mL (≈ 11 µM)

Q: What about the “MIC Enterococcus faecalis (GC 3059)” value (Enterococcus sp.; Enterococcus faecalis (GC 3059)) of the same molecule?
A: 32 µg/mL (≈ 21.9 µM)

Q: And the “MIC Enterococcus faecalis (GC 4552)” value (Enterococcus sp.; Enterococcus faecalis (GC 4552))?
A: 32 µg/mL (≈ 21.9 µM)

Q: What about the “MIC Enterococcus faecalis (GC 4553)” value (Enterococcus sp.; Enterococcus faecalis (GC 4553)) of the same molecule?
A: 32 µg/mL (≈ 21.9 µM)

Q: What about the “MIC Enterococcus faecalis (GC 4554)” value (Enterococcus sp.; Enterococcus faecalis (GC 4554)) of the same molecule?
A: 32 µg/mL (≈ 21.9 µM)

Q: What about the “MIC Enterococcus faecalis (GC 6189)” value (Enterococcus sp.; Enterococcus faecalis (GC 6189)) of the same molecule?
A: 16 µg/mL (≈ 11 µM)

Q: What about the “MIC Enterococcus faecium (GC 2243)” value (Enterococcus sp.; Enterococcus faecium (GC 2243)) of the same molecule?
A: 16 µg/mL (≈ 11 µM)

Q: What about the “MIC Enterococcus faecium (GC 4556)” value (Enterococcus sp.; Enterococcus faecium (GC 4556)) of the same molecule?
A: 32 µg/mL (≈ 21.9 µM)

Q: What about the “MIC Enterococcus faecium (GC 4557)” value (Enterococcus sp.; Enterococcus faecium (GC 4557)) of the same molecule?
A: 4 µg/mL (≈ 2.74 µM)

Q: What about the “MIC Enterococcus faecalis (GC 2242)” value (Enterococcus sp.; [1]) of the same molecule?
A: 16 µg/mL (≈ 11 µM)

Q: And the “MIC Enterococcus faecalis (GC 2691)” value (Enterococcus sp.; [1])?
A: 16 µg/mL (≈ 11 µM)

Q: And the “MIC Enterococcus faecalis (GC 3059)” value (Enterococcus sp.; [1])?
A: 32 µg/mL (≈ 21.9 µM)

Q: And the “MIC Streptococcus agalactiae (GC 4564)” value (Streptococcus sp.; Streptococcus agalactiae (GC 4564))?
A: 2 µg/mL (≈ 1.37 µM)

Q: What about the “MIC Streptococcus pneumoniae (ATCC 6301)” value (Streptococcus sp.; Streptococcus pneumoniae (ATCC 6301)) of the same molecule?
A: 1 µg/mL (≈ 0.685 µM)

Q: What about the “MIC Streptococcus pneumoniae (GC 1894)” value (Streptococcus sp.; Streptococcus pneumoniae (GC 1894)) of the same molecule?
A: 0.5 µg/mL (≈ 0.343 µM)

Q: What about the “MIC Streptococcus pneumoniae (GC 4565)” value (Streptococcus sp.; Streptococcus pneumoniae (GC 4565)) of the same molecule?
A: 1 µg/mL (≈ 0.685 µM)

Q: And the “MIC Streptococcus pyogenes (GC 4563)” value (Streptococcus sp.; Streptococcus pyogenes (GC 4563))?
A: 1 µg/mL (≈ 0.685 µM)

Q: And the “MIC Streptococcus agalactiae (GC 4564)” value (Streptococcus sp.; [1])?
A: 2 µg/mL (≈ 1.37 µM)

Q: And the “MIC Streptococcus pneumoniae (ATCC 6301)” value (Streptococcus sp.; [1])?
A: 1 µg/mL (≈ 0.685 µM)

Q: What about the “MIC Streptococcus pneumoniae (GC 1894)” value (Streptococcus sp.; [1]) of the same molecule?
A: 0.5 µg/mL (≈ 0.343 µM)

Q: And the “MIC Streptococcus pneumoniae (GC 4565)” value (Streptococcus sp.; [1])?
A: 1 µg/mL (≈ 0.685 µM)

Q: What about the “MIC Streptococcus pyogenes (GC 4563)” value (Streptococcus sp.; [1]) of the same molecule?
A: 1 µg/mL (≈ 0.685 µM)

Q: And the “MIC Escherichia coli (ATCC 25922)” value (Escherichia coli; Escherichia coli (ATCC 25922))?
A: >64 µg/mL

Q: What about the “MIC Escherichia coli (GC 4559)” value (Escherichia coli; Escherichia coli (GC 4559)) of the same molecule?
A: >64 µg/mL

Q: And the “MIC Escherichia coli (GC 4560)” value (Escherichia coli; Escherichia coli (GC 4560))?
A: 2 µg/mL (≈ 1.37 µM)
